Measured values taken from US9527851B2, “Pyrrole six-membered heteroaryl ring derivative, preparation method thereof, and medicinal uses thereof” (Jiangsu Hengrui Medicine Co., Ltd., priority 2011, dated 2016).

How the values were obtained:
JAK1 kinase = JAK1 kinase (Homo sapiens (Human), UniProt P23458); test: Assay for inhibiting JAK1 kinase (in vitro kinase assay, HRP anti-phosphotyrosine antibody/TMB absorbance); type: biochemical; conditions: 20 μM ATP, 50 minutes at room temperature; read-out: IC50 (JAK1/Bio)
Experimental: In vitro activity of compounds of the present invention for inhibiting JAK1 kinase was determined by the following method.
IC50 values of test compounds was calculated from the data of the test compounds in inhibiting the activity of JAK1 kinase at different concentrations.

[1] = Pharmacokinetics assay in rats, intragastric administration, plasma by LC/MS/MS; type: in vivo, Sprague-Dawley (SD) rats; conditions: SD rats, 10 mg/kg
Experimental: Rats were used as test animals. […] The pharmacokinetic behavior of the compounds of the present invention was studied and evaluated in rats.
56 Healthy adult Sprague-Dawley (SD) rats, half male and half female, purchased from SINO-BRITSH SIPPR/BK LAB.
The appropriate amount of test compounds were weighed and mixed with 1.0 mL of dimethyl sulfoxide to prepare a 1.0 mg/mL suspension.
After an overnight fast, SD rats were administered intragastrically at a dose of 10.0 mg/kg and an administration volume of 10 mL/kg.
The plasma samples were stored at −20° C. The rats were fed 2 hours after administration.
Content determination of the test compounds in rat plasma after intragastrically administering at different concentrations: 50 μL of rat plasmas taken at various time points after administration were mixed with 50 μL of internal standard solution and 100 μL of methanol and mixed for 3 minutes by a vortexer. The mixture was centrifuged for 10 minutes at 13,500 rpm. 10 μL of the supernatant was taken from the plasma sample and analyzed by LC-MS/MS.
Pharmacokinetic Parameters of the compounds of the present invention were shown as follows: […]

JAK1 kinase, sequence (P23458 whole entry): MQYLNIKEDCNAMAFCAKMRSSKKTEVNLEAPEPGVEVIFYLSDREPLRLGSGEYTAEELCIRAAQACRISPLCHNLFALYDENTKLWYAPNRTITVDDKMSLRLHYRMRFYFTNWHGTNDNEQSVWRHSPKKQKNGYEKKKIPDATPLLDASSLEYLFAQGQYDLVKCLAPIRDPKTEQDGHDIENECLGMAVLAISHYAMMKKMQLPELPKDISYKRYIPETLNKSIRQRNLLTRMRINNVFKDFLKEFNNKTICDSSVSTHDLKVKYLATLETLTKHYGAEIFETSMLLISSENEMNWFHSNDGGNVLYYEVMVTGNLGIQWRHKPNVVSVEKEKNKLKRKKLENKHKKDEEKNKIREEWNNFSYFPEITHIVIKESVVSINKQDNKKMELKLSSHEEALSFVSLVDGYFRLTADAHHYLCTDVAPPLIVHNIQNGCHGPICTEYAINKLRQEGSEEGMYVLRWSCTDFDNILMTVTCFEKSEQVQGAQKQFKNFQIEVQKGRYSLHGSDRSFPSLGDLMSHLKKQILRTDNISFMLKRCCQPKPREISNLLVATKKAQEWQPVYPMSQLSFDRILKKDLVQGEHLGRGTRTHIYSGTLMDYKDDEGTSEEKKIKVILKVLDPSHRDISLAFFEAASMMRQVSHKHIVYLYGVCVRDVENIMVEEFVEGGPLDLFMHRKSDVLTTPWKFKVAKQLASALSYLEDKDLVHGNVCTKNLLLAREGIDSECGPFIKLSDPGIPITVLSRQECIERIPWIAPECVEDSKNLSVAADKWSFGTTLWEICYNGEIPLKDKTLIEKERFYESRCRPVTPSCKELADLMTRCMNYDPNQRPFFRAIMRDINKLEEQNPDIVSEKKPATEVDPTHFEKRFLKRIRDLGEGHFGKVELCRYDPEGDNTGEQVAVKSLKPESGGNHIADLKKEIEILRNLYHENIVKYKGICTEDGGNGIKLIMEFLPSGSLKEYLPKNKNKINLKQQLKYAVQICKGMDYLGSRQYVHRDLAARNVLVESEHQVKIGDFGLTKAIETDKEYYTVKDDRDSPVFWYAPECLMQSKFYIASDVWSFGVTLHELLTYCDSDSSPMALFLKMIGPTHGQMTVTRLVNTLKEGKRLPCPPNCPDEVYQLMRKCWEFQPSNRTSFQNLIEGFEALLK

IC50 (JAK1 kinase) [nM]	SMILES	also measured
30	CN(c1ncnc2[nH]ccc12)[C@H]1C[C@@H]2CN(C(=O)OC(C)(C)C)C[C@@H]2C1 [Example 5, (3aR,5S,6aS)-tert-butyl 5-(methyl(7H-pyrrolo[2,3-d]pyrimidin-4-yl)amino)hexahydro cyclopenta[c]pyrrole-2(1H)-carboxylate]	
32	CN(c1ncnc2[nH]ccc12)[C@H]1C[C@@H]2CN(C(=O)CC#N)C[C@@H]2C1 [Example 8, 3-((3aR,5S,6aS)-5-(Methyl(7H-pyrrolo[2,3-d]pyrimidin-4-yl)amino)hexahydrocyclopenta[c]pyrrol-2(1H)-yl)-3-oxopropanenitrile]	
33	CC(=O)N1C[C@H]2C[C@H](N(C)c3ncnc4[nH]ccc34)C[C@H]2C1 [Example 11, 1-((3aR,5S,6aS)-5-(Methyl(7H-pyrrolo[2,3-d]pyrimidin-4-yl)amino)hexahydrocyclopenta[c]pyrrol-2(1H)-yl)ethanone]	
80	CN(c1ncnc2[nH]ccc12)[C@H]1C[C@@H]2CN(S(=O)(=O)C3CC3)C[C@@H]2C1 [Example 15, N-((3aR,5S,6aS)-2-(Cyclopropylsulfonyl)octahydrocyclopenta[c]pyrrol-5-yl)-N-methyl-7H-pyrrolo[2,3-d]pyrimidin-4-amine]	
49	COCC(=O)N1C[C@H]2C[C@H](N(C)c3ncnc4[nH]ccc34)C[C@H]2C1 [Example 18, 2-Methoxy-1-((3aR,5S,6aS)-5-(methyl(7H-pyrrolo[2,3-d]pyrimidin-4-yl)amino)hexahydrocyclopenta[c]pyrrol-2(1H)-yl)ethanone]	
17	CN(c1ncnc2[nH]ccc12)[C@H]1C[C@@H]2CN(C(=O)CNS(C)(=O)=O)C[C@@H]2C1 [Example 21, N-(2-((3aR,5S,6aS)-5-(Methyl(7H-pyrrolo[2,3-d]pyrimidin-4-yl)amino)hexahydrocyclopenta[c]pyrrol-2(1H)-yl)-2-oxoethyl)methanesulfonamide]	
21	CN(c1ncnc2[nH]ccc12)[C@@H]1C[C@@H]2CN(C(=O)CO)C[C@@H]2C1 [Example 23, 2-Hydroxy-1-((3aR,5R,6aS)-5-(methyl(7H-pyrrolo[2,3-d]pyrimidin-4-yl)amino)hexahydrocyclopenta[c]pyrrol-2(1H)-yl)ethanone]	
100	CN(c1ncnc2[nH]ccc12)[C@H]1C[C@@H]2CN(S(C)(=O)=O)C[C@@H]2C1 [Example 51, N-methyl-N-((3aR,5S,6aS)-2-(methylsulfonyl)octahydrocyclopenta[c]pyrrol-5-yl)-7H-pyrrolo[2,3-d]pyrimidin-4-amine]	
127	CNC(=O)N1C[C@H]2C[C@H](N(C)c3ncnc4[nH]ccc34)C[C@H]2C1 [Example 80, (3aR,5S,6aS)-N-methyl-5-(methyl(7H-pyrrolo[2,3-d]pyrimidin-4-yl)amino)hexahydrocyclopenta[c]pyrrole-2(1H)-carboxamide]	
113	CN(c1ncnc2[nH]ccc12)[C@H]1C[C@@H]2CN(C(=O)[C@H](O)c3ccccc3)C[C@@H]2C1 [Example 81, (R)-2-hydroxy-1-((3aR,5S,6aS)-5-(methyl(7H-pyrrolo[2,3-d]pyrimidin-4-yl)amino)hexahydrocyclopenta[c]pyrrol-2(1H)-yl)-2-phenylethanone]	
49	CC(C#N)C(=O)N1C[C@H]2C[C@H](N(C)c3ncnc4[nH]ccc34)C[C@H]2C1 (stereo partly drawn) [Example 82, 2-methyl-3-((3aR,5S,6aS)-5-(methyl(7H-pyrrolo[2,3-d]pyrimidin-4-yl)amino)hexahydrocyclopenta[c]pyrrol-2(1H)-yl)-3-oxopropanenitrile]	
50	CN(c1ncnc2[nH]ccc12)[C@H]1C[C@@H]2CN(C(=O)C(C)(C)O)C[C@@H]2C1 [Example 83, 2-hydroxy-2-methyl-1-((3aR,5S,6aS)-5-(methyl(7H-pyrrolo[2,3-d]pyrimidin-4-yl)amino)hexahydrocyclopenta[c]pyrrol-2(1H)-yl)propan-1-one]	
80	CN(c1ncnc2[nH]ccc12)[C@H]1C[C@@H]2CN(C(=O)Cc3nn[nH]n3)C[C@@H]2C1 [Example 85, 1-((3aR,5S,6aS)-5-(methyl(7H-pyrrolo[2,3-d]pyrimidin-4-yl)amino)hexahydrocyclopenta[c]pyrrol-2(1H)-yl)-2-(2H-tetrazol-5-yl)ethanone]	
70	CC[C@H](O)C(=O)N1C[C@H]2C[C@H](N(C)c3ncnc4[nH]ccc34)C[C@H]2C1 [Example 93, (S)-2-hydroxy-1-((3aR,5R,6aS)-5-(methyl(7H-pyrrolo[2,3-d]pyrimidin-4-yl)amino)hexahydrocyclopenta[c]pyrrol-2(1H)-yl)butan-1-one]	
	CN(c1ncnc2[nH]ccc12)[C@H]1C[C@@H]2CN(C(=O)Nc3nc(OCC(C)(C)O)ns3)C[C@@H]2C1 [Example 99, (3aR,5S,6aS)-N-(3-(2-hydroxy-2-methylpropoxy)-1,2,4-thiadiazol-5-yl)-5-(methyl(7H-pyrrolo[2,3-d]pyrimidin-4-yl)amino)hexahydrocyclopenta[c]pyrrole-2(1H)-carboxamide]	Vd/F ([1]; both sexes, Sprague-Dawley, rat, plasma, po, read-out: Apparent Distribution Volume Vz/F): 2.76 ± 1.53 L/kg; AUC ([1]; both sexes, Sprague-Dawley, rat, plasma, po, read-out: Area Under Curve AUC): 14900 ± 10400 ng·h/mL; CL/F ([1]; both sexes, Sprague-Dawley, rat, plasma, po, read-out: Clearance CL/F): 18.3 ± 14.2 mL/min/kg; half-life ([1]; both sexes, Sprague-Dawley, rat, plasma, po, read-out: Half-Life t½ (converted)): 2.1 ± 0.73 h; MRT ([1]; both sexes, Sprague-Dawley, rat, plasma, po, read-out: Mean Residence Time MRT): 3.81 ± 0.82 h; Cmax ([1]; both sexes, Sprague-Dawley, rat, plasma, po, read-out: Plasma Conc. Cmax): 2670 ± 1450 ng/mL
109	CN(c1ncnc2[nH]ccc12)[C@H]1C[C@@H]2CN(C(=O)Nc3ccn(C)n3)C[C@@H]2C1 [Example 104, (3aR,5S,6aS)-5-(methyl(7H-pyrrolo[2,3-d]pyrimidin-4-yl)amino)-N-(1-methyl-1H-pyrazol-3-yl)hexahydrocyclopenta[c]pyrrole-2(1H)-carboxamide]	
	CCc1nsc(NC(=O)N2C[C@H]3C[C@H](N(C)c4ncnc5[nH]ccc45)C[C@H]3C2)n1 [Example 121, (3aR,5S,6aS)-N-(3-ethyl-1,2,4-thiadiazol-5-yl)-5-(methyl(7H-pyrrolo[2,3-d]pyrimidin-4-yl)amino)hexahydrocyclopenta[c]pyrrole-2(1H)-carboxamide]	Apparent Distribution Volume Vz/F [1]: 7.203 ± 8.113 L/kg; Area Under Curve AUC [1]: 9617 ± 7909 ng·h/mL; Clearance CL/F [1]: 31.9 ± 26.9 mL/min/kg; Mean Residence Time MRT [1]: 3.40 ± 0.91 h; Plasma Conc. Cmax [1]: 2071 ± 1473 ng/mL
	CN(c1ncnc2[nH]ccc12)[C@H]1C[C@@H]2CN(C(=O)Nc3nc(C4CC4)ns3)C[C@@H]2C1 [Example 125, (3aR,5S,6aS)-N-(3-cyclopropyl-1,2,4-thiadiazol-5-yl)-5-(methyl(7H-pyrrolo[2,3-d]pyrimidin-4-yl)amino)hexahydrocyclopenta[c]pyrrole-2(1H)-carboxamide]	Apparent Distribution Volume Vz/F [1]: 18.063 ± 20.748 L/kg; Area Under Curve AUC [1]: 5997 ± 4741 ng·h/mL; Clearance CL/F [1]: 46.1 ± 35.6 mL/min/kg; Plasma Conc. Cmax [1]: 1061 ± 677 ng/mL

SMILES	IC50 (JAK1 kinase) [nM]	also measured
CN(c1ncnc2[nH]ccc12)[C@H]1C[C@@H]2CN(C(=O)C3CC3)C[C@@H]2C1 [Example 13, Cyclopropyl((3aR,5S,6aS)-5-(methyl(7H-pyrrolo[2,3-d]pyrimidin-4-yl)amino)hexahydrocyclopenta[c]pyrrol-2(1H)-yl)methanone]	30	
C[C@@H](O)C(=O)N1C[C@H]2C[C@H](N(C)c3ncnc4[nH]ccc34)C[C@H]2C1 [Example 19, (R)-2-Hydroxy-1-((3aR,5S,6aS)-5-(methyl(7H-pyrrolo[2,3-d]pyrimidin-4-yl)amino)hexahydrocyclopenta[c]pyrrol-2(1H)-yl)propan-1-one]	48	
CN(c1ncnc2[nH]ccc12)[C@H]1C[C@@H]2CN(CC#N)C[C@@H]2C1 [Example 26, 2-((3aR,5S,6aS)-5-(Methyl(7H-pyrrolo[2,3-d]pyrimidin-4-yl)amino)hexahydrocyclopenta[c]pyrrol-2(1H)-yl)acetonitrile]	46	
CN(c1ncnc2[nH]ccc12)[C@H]1C[C@@H]2CN(CCC#N)C[C@@H]2C1 [Example 27, 3-((3aR,5S,6aS)-5-(Methyl(7H-pyrrolo[2,3-d]pyrimidin-4-yl)amino)hexahydrocyclopenta[c]pyrrol-2(1H)-yl)propanenitrile]	30	
C[C@H](O)C(=O)N1C[C@H]2C[C@@H](N(C)c3ncnc4[nH]ccc34)C[C@H]2C1 [Example 71, (S)-2-hydroxy-1-((3aR,5S,6aS)-5-(methyl(7H-pyrrolo[2,3-d]pyrimidin-4-yl)amino)hexahydrocyclopenta[c]pyrrol-2(1H)-yl)propan-1-one]	36	
C[C@@H](O)C(=O)N1C[C@H]2C[C@@H](N(C)c3ncnc4[nH]ccc34)C[C@H]2C1 [Example 72, (R)-2-hydroxy-1-((3aR,5R,6aS)-5-(methyl(7H-pyrrolo[2,3-d]pyrimidin-4-yl)amino)hexahydrocyclopenta[c]pyrrol-2(1H)-yl)propan-1-one]	42	
